Tests used:
[1] = molecular target: T1, aminocaprolactam racemase derived from Achromobacter obae (Achromobacter obae, UniProt Q7M181); conditions: activity for 2-aminobutyric acid amide is 100; cited from earlier work
T1 sequence (Q7M181 1-436): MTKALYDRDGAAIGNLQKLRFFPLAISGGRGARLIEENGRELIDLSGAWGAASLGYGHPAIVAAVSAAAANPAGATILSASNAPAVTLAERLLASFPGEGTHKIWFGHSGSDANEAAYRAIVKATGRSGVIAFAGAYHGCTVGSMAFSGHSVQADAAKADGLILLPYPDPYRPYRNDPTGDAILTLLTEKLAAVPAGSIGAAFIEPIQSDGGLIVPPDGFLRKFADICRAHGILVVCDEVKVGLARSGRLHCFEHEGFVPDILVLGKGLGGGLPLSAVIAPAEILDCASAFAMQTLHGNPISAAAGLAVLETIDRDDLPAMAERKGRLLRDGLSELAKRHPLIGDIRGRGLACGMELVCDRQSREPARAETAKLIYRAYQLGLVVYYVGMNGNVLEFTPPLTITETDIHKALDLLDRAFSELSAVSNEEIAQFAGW

[2] = system: nitrile hydratase derived from Rhodococcus opacus 71D; test: Substrate specificity of the purified enzyme from Rhodococcus opacus 71D (aminonitrile to amino acid amide, HPLC); conditions: for Relative activity for each substrate: enzymatic properties, activity for 2-aminobutyronitrile is 100; for Relative activity: 30° C., 0.1 M potassium phosphate buffer pH 7.0, activity for 2-aminobutyronitrile = 100
[3] = molecular target: D-aminopeptidase derived from Ochrobactrum anthropi (Brucella anthropi, UniProt Q9ZBA9); conditions: activity for D-2-aminobutyric acid amide is 100; cited from earlier work
D-aminopeptidase derived from Ochrobactrum anthropi, sequence (Q9ZBA9 whole entry, looked up): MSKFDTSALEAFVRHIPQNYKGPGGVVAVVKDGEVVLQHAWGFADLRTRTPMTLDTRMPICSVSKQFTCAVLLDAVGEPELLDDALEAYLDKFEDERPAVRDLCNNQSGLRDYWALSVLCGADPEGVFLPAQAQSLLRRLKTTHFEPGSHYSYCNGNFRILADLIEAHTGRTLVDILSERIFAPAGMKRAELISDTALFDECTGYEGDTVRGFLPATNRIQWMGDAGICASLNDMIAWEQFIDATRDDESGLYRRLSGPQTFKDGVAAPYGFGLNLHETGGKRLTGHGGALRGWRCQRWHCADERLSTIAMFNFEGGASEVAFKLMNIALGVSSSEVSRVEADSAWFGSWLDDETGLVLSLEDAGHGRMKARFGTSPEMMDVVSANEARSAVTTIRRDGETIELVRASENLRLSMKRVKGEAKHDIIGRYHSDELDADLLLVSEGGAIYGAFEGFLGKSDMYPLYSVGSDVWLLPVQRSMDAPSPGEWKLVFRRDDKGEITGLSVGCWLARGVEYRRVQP

[4] = system: L-amino acid amidase derived from Brevundimonas diminuta; conditions: activity for L-2-aminobutyric acid amide is 100; cited from earlier work
[5] = system: enzyme selectively converting the L-amino acid amide into the L-amino acid, Xanthobacter flavus; conditions: activity for L-2-aminobutyric acid amide is 100; cited from earlier work

CCC(N)C(N)=O (stereo not drawn) [2-aminobutyric acid amide]
Relative activity for each substrate [1]: 100

CCC(N)C#N (stereo not drawn) [2-aminobutyronitrile]
Relative activity for each substrate [2]: 100 | Relative activity ([2]; substrate 20 mM): 100

CC(N)C#N (stereo not drawn) [Alaninonitrile]
Relative activity for each substrate [2]: 77 | Relative activity ([2]; substrate 20 mM): 77.0

CC[C@@H](N)C(N)=O [D-2-aminobutyric acid amide]
Relative activity for each substrate [3]: 100

C[C@@H](N)C(N)=O [D-alaninamide]
Relative activity for each substrate [3]: 333

CSCC[C@@H](N)C(N)=O [D-methioninamide]
Relative activity for each substrate [3]: 6.7

CCCC[C@@H](N)C(N)=O [D-norleuicinamide]
Relative activity for each substrate [3]: 2.7

CCC[C@@H](N)C(N)=O [D-norvalinamide]
Relative activity for each substrate [3]: 6

NC(=O)[C@H](N)c1ccccc1 [D-phenylglycinamide]
Relative activity for each substrate [3]: 2.3

NC(=O)[C@H](N)CO [D-serinamide]
Relative activity for each substrate [3]: 97

C[C@H](O)[C@@H](N)C(N)=O [D-threoninamide]
Relative activity for each substrate [3]: 30

CC[C@H](N)C(N)=O [L-2-aminobutyric acid amide]
Relative activity for each substrate [4]: 100 | Relative activity for each substrate [5]: 100

C[C@H](N)C(N)=O [L-alaninamide]
Relative activity for each substrate [1]: 78 | Relative activity for each substrate [4]: 3.4

CC[C@H](C)[C@H](N)C(N)=O [L-isoleuicinamide]
Relative activity for each substrate [4]: 30.2

CC(C)C[C@H](N)C(N)=O [L-leuicinamide]
Relative activity for each substrate [1]: 48 | Relative activity for each substrate [4]: 92.7

CSCC[C@H](N)C(N)=O [L-methioninamide]
Relative activity for each substrate [1]: 35 | Relative activity for each substrate [4]: 85.4

CCCC[C@H](N)C(N)=O [L-norleuicinamide]
Relative activity for each substrate [1]: 56

CCC[C@H](N)C(N)=O [L-norvalinamide]
Relative activity for each substrate [1]: 63

NC(=O)[C@@H](N)Cc1ccccc1 [L-phenylalaninamide]
Relative activity for each substrate [1]: 2 | Relative activity for each substrate [4]: 104 | Relative activity for each substrate [5]: 111

NC(=O)[C@@H](N)c1ccccc1 [L-phenylglycinamide]
Relative activity for each substrate [5]: 113

NC(=O)[C@@H](N)CO [L-serinamide]
Relative activity for each substrate [1]: 17 | Relative activity for each substrate [4]: 2.9

CC(C)(C)[C@H](N)C(N)=O [L-t-leuicinamide]
Relative activity for each substrate [4]: 0.2 | Relative activity for each substrate [5]: 8.4

C[C@@H](O)[C@H](N)C(N)=O [L-threoninamide]
Relative activity for each substrate [1]: 63 | Relative activity for each substrate [4]: 14.6

CC(C)[C@H](N)C(N)=O [L-valinamide]
Relative activity for each substrate [4]: 17.7 | Relative activity for each substrate [5]: 65

N#C[C@@H](N)Cc1ccccc1 [Phenylalaninonitrile]
Relative activity for each substrate [2]: 42.9 | Relative activity ([2]; substrate concentration 10 mM): 42.9

N#CC(N)c1ccccc1 (stereo not drawn) [Phenylglycinonitirle]
Relative activity for each substrate [2]: 177 | Relative activity ([2]; substrate 20 mM): 177

CC(C)[C@H](N)C#N [Valinonitrile]
Relative activity for each substrate [2]: 15.1 | Relative activity ([2]; substrate 20 mM): 15.1

CC(C)C[C@H](N)C#N [leucinonitrile]
Relative activity for each substrate [2]: 11.8

CC(C)(C)C(N)C#N (stereo not drawn) [t-leuicinonitrile]
Relative activity for each substrate [2]: 1.80 | Relative activity ([2]; substrate 20 mM): 1.8

Source: patent US20100105111A1, “METHOD FOR PRODUCTION OF OPTICALLY ACTIVE AMINO ACID” (Mitsubishi Gas Chemical Company, Inc., priority 2007, published 2010)
